From BindingDB's records for doi:10.1016/j.bmcl.2013.07.018 (Chungnam National University, 2013)

Assay: Inhibition of Fas-mediated cell death in oxygen and glucose deprived rat H9c2 cells treated 30 mins before oxygen and glucose deprivation measured after 6 hrs by DAPI staining

SMILES	EC50 [nM]
COC(=O)c1ccsc1NC(=O)CSc1ccccc1	724
COC(=O)c1sc2ncccc2c1NC(=O)CCSc1ccccn1	490
COC(=O)c1sccc1NC(=O)CSc1ccc(OC)cc1	871
COC(=O)c1oc2cccc(Cl)c2c1NC(=O)CCSc1ccccn1	631
O=C(CCSc1ccccn1)Nc1cc(Cl)ccc1C1=NCCO1	1740
COC(=O)c1oc2cccc(Cl)c2c1NC(=O)CSc1ccccn1	646
COC(=O)c1cc(OC)c(OC)cc1NC(=O)CCSc1ccccn1	1320
COC(=O)c1sccc1NC(=O)CSc1cccc(OC)c1	575
COC(=O)c1oc2ccccc2c1NC(=O)CSc1ccc(Br)cc1	661
O=C(CSc1ccc(Br)cc1)Nc1c(Br)cc(Br)cc1C(=O)O	1230
COc1cc(C(=O)O)c(NC(=O)CCSc2ccccn2)c(OC)c1OC	2090
COC(=O)c1sccc1NC(=O)CCSc1ccc(Br)cc1	1290
Cc1csc(C(=O)O)c1NC(=O)CSc1ccc(Br)cc1	1120
O=C(CSc1ccc(Br)cc1)Nc1ccccc1C(=O)O	2240
COC(=O)c1ccccc1NC(=O)CSc1ccccn1 [2-[[1-oxo-2-(2-pyridinylthio)ethyl]amino]benzoic acid methyl ester]	692
COC(=O)c1cc(Br)cc(Br)c1NC(=O)C(Sc1ccc(Br)cc1)c1ccccc1 (stereo not drawn)	1580
COC(=O)c1nn(CCc2ccccc2)cc1NC(=O)CCc1ccccc1	427
COC(=O)c1oc2cccc(Cl)c2c1NC(=O)CSc1ccc(Br)cc1	1150
COC(=O)c1oc2ccccc2c1NC(=O)COc1ccc(Br)cc1	1050
COC(=O)c1ccccc1NC(=O)CSc1ccccc1	562
COC(=O)c1c(NC(=O)CSc2cccc(OC)c2)cnn1CCc1ccccc1	437
COC(=O)c1c(NC(=O)CSc2ccc(Br)cc2)cnn1CCc1ccccc1	513

SMILES	EC50 [nM]
COC(=O)c1oc2ccccc2c1NC(=O)CSc1ccc([N+](=O)[O-])cc1	575
COC(=O)c1nn(CCc2ccccc2)cc1NC(=O)COc1ccc(Br)cc1	355
O=C(CSc1ccc(Br)cc1)Nc1c(C(=O)O)oc2ccccc12	724
COC(=O)c1sccc1NC(=O)CCSc1ccccc1	501
O=C(O)c1cc(Cl)ccc1NC(=O)C(Sc1ccc(Br)cc1)c1ccccc1 (stereo not drawn)	2000
COC(=O)c1ccc(Cl)cc1NC(=O)CCSc1ccccn1	1020
COC(=O)c1cc(OC)c(OC)c(OC)c1NC(=O)CCSc1ccccn1	1070
COC(=O)c1sccc1NC(=O)CSc1ccc(Br)cc1	427
COc1cc(NC(=O)CSc2ccc(Br)cc2)c(C2=NCCO2)cc1OC	955
COC(=O)c1ccc(Cl)cc1NC(=O)CSc1ccc(Br)cc1	955
COC(=O)c1sccc1NC(=O)CSc1ccccc1	794
COC(=O)c1ccsc1NC(=O)CCSc1ccc(Br)cc1	589
COC(=O)c1c(NC(=O)CSc2ccc([N+](=O)[O-])cc2)cnn1CCc1ccccc1	457
COC(=O)c1sc2ccccc2c1NC(=O)CCSc1ccc(Br)cc1	724
COC(=O)c1sccc1NC(=O)COc1ccc(Br)cc1	891
COC(=O)c1sccc1NC(=O)CN(C)c1ccccc1	661
COC(=O)c1cc(Br)cc(Br)c1NC(=O)CCSc1ccccn1	933
COC(=O)c1sc2ccccc2c1NC(=O)CSc1ccccc1	692
COC(=O)c1c(NC(=O)CSc2ccccc2N)cnn1CCc1ccccc1	513
CN(C)C(=O)c1sccc1NC(=O)CSc1ccc(Br)cc1	851
COC(=O)c1ccsc1NC(=O)CSc1ccc(Br)cc1	759
